Drawing on US8735414B2 (priority 2009, dated 2014), this text covers IC50 and melting point for 19 compounds.

Bounds are passed on as bounds.

For data set [1], the system named is bicistronic HCV replicon (replicon RNA, GenBank Accession No. AJ242654). Briefly: HCV Replicon Assay. It is filed as cell-based. Conditions: Hepatitis C virus, 72 h, read-out: Replicon IC50. In general terms: In antiviral work, replicon cells carry a viral genome segment that copies itself.

For `COc1cc2c(cc1F)c(C#N)c(-c1ccc(S(=O)(=O)NC(CF)CF)cn1)n2C1CCC1` [compound 102, 6-(3-cyano-1-cyclobutyl-5-fluoro-6-methoxy-1H-indol-2-yl)-N-(1,3-difluoropropan-2-yl)pyridine-3-sulfonamide], the melting point (as a rule, the temperature, or range, at which the solid turns liquid) lay within 217 to 219 °C. The IC50 (as a rule, the concentration that inhibits the measured activity by half) in data set [1] is under 500 nM.
Taken in the same sequence, the figures for `CC(C)n1c(-c2ncc(S(=O)(=O)N[C@@H](C)C3CC3)cn2)c(C#N)c2cc(F)ccc21` [compound 529, 2-[3-cyano-5-fluoro-1-(propan-2-yl)-1H-indol-2-yl]-N-[(1S)-1-cyclopropylethyl]pyrimidine-5-sulfonamide] were 176 to 179 °C and under 500 nM.
In the same order, the values of `Cc1ccc2c(c1)c(C#N)c(-c1ncc(S(=O)(=O)N[C@@H](C)C(F)(F)F)cn1)n2C(C)C` [compound 566, 2-[3-cyano-5-methyl-1-(propan-2-yl)-1H-indol-2-yl]-N-[(2S)-1,1,1-trifluoropropan-2-yl]pyrimidine-5-sulfonamide] are 195 to 198 °C and 500 to 2000 nM.
`C[C@H](NS(=O)(=O)c1ccc(-c2c(C#N)c3cc(F)c(OC(F)F)cc3n2-c2ccccn2)nc1)C(F)(F)F` [compound 657, 6-[3-cyano-6-(difluoromethoxy)-5-fluoro-1-(pyridine-2-yl)-1H-indol-2-yl]-N-[(2S)-1,1,1-trifluoropropan-2-yl]pyridine-3-sulfonamide] gave a melting point of 161 to 163 °C. The IC50 in data set [1] is under 500 nM.
The compound `Cc1cc2c(cc1F)c(C#N)c(-c1ccc(S(=O)(=O)N[C@@H](C)C(F)(F)F)cn1)n2-c1cscc1C` [compound 1056, 6-[3-cyano-5-fluoro-6-methyl-1-(4-methylthiophen-3-yl)-1H-indol-2-yl]-N-[(2S)-1,1,1-trifluoropropan-2-yl]pyridine-3-sulfonamide] gave a melting point of 223.2 to 227.1 °C. Besides, the IC50 in data set [1] is under 500 nM.
`CC(C)c1ccc2c(C#N)c(-c3ccc(S(=O)(=O)NC(CF)CF)cn3)n(CC3CC3)c2c1` [compound 460, 6-[3-cyano-1-(cyclopropylmethyl)-6-(propan-2-yl)-1H-indol-2-yl]-N-(1,3-difluoropropan-2-yl)pyridine-3-sulfonamide] had a melting point of 132 to 134 °C. The IC50 in data set [1] was under 500 nM.
Take `Cc1cc2c(cc1F)c(C#N)c(-c1ccc(S(=O)(=O)NC(CF)CF)cn1)n2-c1ccccn1` [compound 540, 6-[3-cyano-5-fluoro-6-methyl-1-(pyridin-2-yl)-1H-indol-2-yl]-N-(1,3-difluoropropan-2-yl)pyridine-3-sulfonamide]: the melting point lay in the range of 233 to 236 °C. In addition, in data set [1], the IC50 was under 500 nM.
In the same order, the values of `N#Cc1c(-c2ccc(S(=O)(=O)NC(CF)CF)cn2)n(C2CCCC2)c2cc(Cl)ccc12` [compound 64, 6-(6-chloro-3-cyano-1-cyclopentyl-1H-indol-2-yl)-N-(1,3-difluoropropan-2-yl)pyridine-3-sulfonamide] are 236 to 240 °C and under 500 nM.
Compound `COc1ccnc(-n2c(-c3ccc(S(=O)(=O)N[C@@H](C)C(F)(F)F)cn3)c(C(N)=O)c3cc(F)c(C)cc32)n1` [compound 906, 5-fluoro-1-(4-methoxypyrimidin-2-yl)-6-methyl-2-(5-{[(2S)-1,1,1-trifluoropropan-2-yl]sulfamoyl}pyridin-2-yl)-1H-indole-3-carboxamide] registered a melting point of 167 to 174 °C. Further, in data set [1], the IC50 was under 500 nM.
`N#Cc1c(-c2ccc(S(=O)(=O)NC(CF)CF)cn2)n(-c2ccccn2)c2ccc(Cl)cc12` [compound 443, 6-[5-chloro-3-cyano-1-(pyridin-2-yl)-1H-indol-2-yl]-N-(1,3-difluoropropan-2-yl)pyridine-3-sulfonamide] came in with a melting point of 187 to 188 °C. Besides, in data set [1], the IC50 is under 500 nM.
Taken in the same sequence, the figures for `C[C@H](NS(=O)(=O)c1ccc(-c2c(C#N)c3ccc(OC(F)F)cc3n2-c2ncccn2)nc1)C(F)(F)F` [compound 512, 6-[3-cyano-6-(difluoromethoxy)-1-(pyrimidin-2-yl)-1H-indol-2-yl]-N-[(2S)-1,1,1-trifluoropropan-2-yl]pyridine-3-sulfonamide] were 186 to 189 °C and under 500 nM.
Taken in the same sequence, the figures for `N#Cc1ccc2c(C#N)c(-c3ncc(S(=O)(=O)NC(CF)CF)cn3)n(C3CCC3)c2c1` [compound 466, 2-(3,6-dicyano-1-cyclobutyl-1H-indol-2-yl)-N-(1,3-difluoropropan-2-yl)pyrimidine-5-sulfonamide] were 240 to 241 °C and under 500 nM.
On to `Cc1cc2c(cc1F)c(C#N)c(-c1ccc(S(=O)(=O)N[C@H](C)C(F)(F)F)cn1)n2C1CCCCC1` [compound 680, 6-(3-cyano-1-cyclohexyl-5-fluoro-6-methyl-1H-indol-2-yl)-N-[(2R)-1,1,1-trifluoropropan-2-yl]pyridine-3-sulfonamide], for which the melting point was 224 to 229 °C. The IC50 in data set [1] is under 500 nM.
Regarding `N#Cc1c(-c2ccc(S(=O)(=O)NC(CF)CF)cn2)n(C2CCC2)c2cc(Cl)ccc12` [compound 37, 6-(6-chloro-3-cyano-1-cyclobutyl-1H-indol-2-yl)-N-(1,3-difluoropropan-2-yl)pyridine-3-sulfonamide], the melting point is 200 to 202 °C. The IC50 in data set [1] is under 500 nM.
On to `Cc1ccc2c(C#N)c(-c3ncc(S(=O)(=O)NC(C)C)cn3)n(C3CCCCC3)c2c1` [compound 98, 2-(3-cyano-1-cyclohexyl-6-methyl-1H-indol-2-yl)-N-(propan-2-yl)pyrimidine-5-sulfonamide], for which the melting point lay in the range of 196 to 201 °C. Also, the IC50 in data set [1] is under 500 nM.
In the same order, the values of `COC(=O)c1c(-c2ccc(S(=O)(=O)N[C@@H](C)C(F)(F)F)cn2)n(C2CCCCC2)c2ccc(F)cc12` [compound 717, methyl 1-cyclohexyl-5-fluoro-2-(5-{[(2S)-1,1,1-trifluoropropan-2-yl]sulfamoyl}pyridin-2-yl)-1H-indole-3-carboxylate] are 232 to 240 °C and 500 to 2000 nM.
`Cc1cnc(-n2c(-c3ccc(S(=O)(=O)N[C@@H](C)C(F)(F)F)cn3)c(C(N)=O)c3cc(F)c(C)cc32)cn1` [compound 904, 5-fluoro-6-methyl-1-(5-methylpyrazin-2-yl)-2-(5-{[(2S)-1,1,1-trifluoropropan-2-yl]sulfamoyl}pyridin-2-yl)-1H-indole-3-carboxamide]: the melting point lay within 202 to 208 °C. Moreover, the IC50 in data set [1] was under 500 nM.
Taken in the same sequence, the figures for `N#Cc1c(-c2ncc(S(=O)(=O)NC(CF)CF)cn2)n(CC2CC2)c2cc(F)ccc12` [compound 164, 2-[3-cyano-1-(cyclopropylmethyl)-6-fluoro-1H-indol-2-yl]-N-(1,3-difluoropropan-2-yl)pyrimidine-5-sulfonamide] were 176 to 178 °C and 500 to 2000 nM.
Compound `COc1ccc2c(c1)c(C#N)c(-c1ccc(S(=O)(=O)NC(CF)CF)cn1)n2C1CCCC1` [compound 571, 6-(3-cyano-1-cyclopentyl-5-methoxy-1H-indol-2-yl)-N-(1,3-difluoropropan-2-yl)pyridine-3-sulfonamide] registered a melting point of 167 to 169 °C. For the same compound, in data set [1], the IC50 was under 500 nM.
